Source: ChEMBL document CHEMBL1201862, “PubChem BioAssay data set” (2004)
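How tested: cells in 96-well plates exposed to compound for 48 hours at five concentrations. GI50 is the concentration that inhibits growth by half.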 Calls of active or inactive are those of the source. No stated cut-off is given here; in the data, active = GI50 up to about 1.1 µM and inactive = higher.

Experiments:
Experiment in all cases: NCI anticancer screen, dose series, 48 h
[1] = test system: ACHN
[2] = test system: SF-539
[3] = test system: COLO 205
[4] = test system: DU-145
[5] = test system: LOX IMVI
[6] = test system: NCI/ADR-RES
[7] = test system: Malme-3M
[8] = test system: TK-10
[9] = test system: OVCAR-8
[10] = test system: SF-295
[11] = test system: IGROV-1
[12] = test system: SK-MEL-28
[13] = test system: MOLT-4
[14] = test system: NCI-H460
[15] = test system: HOP-92
[16] = test system: UACC-257
[17] = test system: A549
[18] = test system: SW-620
[19] = test system: NCI-H23
[20] = test system: UACC-62

Measured: GI50

COc1ccc(/C=C/c2nsc(/C=C/c3ccc(OC)cc3)n2)cc1
inactive: [1] > 100 µM | [2] > 100 µM | [3] > 100 µM | [4] > 100 µM | [5] 55.1 µM | [6] > 100 µM | [7] > 100 µM | [8] > 100 µM | [9] > 100 µM | [10] > 100 µM | [11] > 100 µM | [12] > 100 µM | [13] 33 µM | [14] 24.9 µM | [15] > 100 µM | [16] 41.4 µM | [17] > 100 µM

O=C1CC2CCC(C1)[S+]2[O-] (stereo not given)
inactive: [2] > 100 µM | [3] > 100 µM | [4] > 100 µM | [5] > 100 µM | [6] > 100 µM | [18] > 100 µM | [7] > 100 µM | [8] > 100 µM | [9] > 100 µM | [10] 61.4 µM | [19] > 100 µM | [11] > 100 µM | [12] > 100 µM | [13] > 100 µM | [14] > 100 µM | [15] > 100 µM | [20] > 100 µM | [16] > 100 µM | [17] > 100 µM

CCOC(=O)[C@@H]1CCN2CN(c3ccc(OC)cc3)N=C(c3ccccc3)[C@@]12c1ccccc1
inactive: [1] 24.8 µM | [3] 21.4 µM | [4] 22.6 µM | [5] 14.1 µM | [6] 28.3 µM | [18] 32.1 µM | [7] 16.6 µM | [8] 29.3 µM | [9] 22.7 µM | [10] 25.8 µM | [19] 24.1 µM | [11] 21.3 µM | [12] 21.5 µM | [13] 26.1 µM | [14] 27.8 µM | [15] 12.6 µM | [20] 15.5 µM | [16] 19.4 µM | [17] 29.9 µM

Oc1ccc(/C=N/NC(=S)Nc2cccnc2)nc1
inactive: [1] 4.76 µM | [2] 4.49 µM | [3] 3.98 µM | [4] 3.72 µM | [5] 3.26 µM | [6] 2.46 µM | [18] 4.82 µM | [7] 2.07 µM | [9] 2.79 µM | [10] 19.9 µM | [19] 8.15 µM | [11] 14.7 µM | [12] 6.18 µM | [13] 2.8 µM | [15] 5.38 µM | [20] 6.97 µM | [16] 13.7 µM | [17] 38.3 µM

CC1(C)O[C@@H]([C@@H](O)[C@H](O)C2SCCCS2)[C@@H](CO)O1
inactive: [1] > 100 µM | [3] > 100 µM | [4] > 100 µM | [5] > 100 µM | [6] > 100 µM | [18] > 100 µM | [7] > 100 µM | [8] > 100 µM | [9] > 100 µM | [10] > 100 µM | [19] > 100 µM | [11] > 100 µM | [12] > 100 µM | [13] > 100 µM | [14] > 100 µM | [15] > 100 µM | [20] > 100 µM | [16] > 100 µM | [17] > 100 µM

C=C1C2CCC3C4(C)CCCC(C)(C(=O)O)C4CCC3(C2)C1OC(=O)/C(C)=C/C (stereo not given)
inactive: [1] 36.1 µM | [2] 27.5 µM | [3] 29.6 µM | [4] 42.3 µM | [5] 34.5 µM | [6] 21.1 µM | [18] 61.7 µM | [7] 30 µM | [8] 72.8 µM | [9] 32.7 µM | [10] 20.3 µM | [19] 36.8 µM | [11] 27.1 µM | [12] 51.6 µM | [14] 34.6 µM | [15] 25.6 µM | [20] 25.6 µM | [16] 39.7 µM | [17] 35.9 µM

O=C1OC(C2(O)OC(=O)c3ccccc32)c2ccccc21 (stereo not given)
inactive: [1] > 100 µM | [2] > 100 µM | [3] > 100 µM | [4] > 100 µM | [5] > 100 µM | [6] > 100 µM | [18] > 100 µM | [8] > 100 µM | [9] > 100 µM | [10] > 100 µM | [19] > 100 µM | [11] > 100 µM | [12] > 100 µM | [13] > 100 µM | [14] > 100 µM | [15] > 100 µM | [20] > 100 µM | [16] > 100 µM | [17] > 100 µM
